Assay results taken from patent US11976058B2, “Aromatic derivatives, preparation methods, and medical uses thereof” (Bioardis LLC, priority 2019, dated 2024).
Like-named read-outs stand apart in the source and are kept apart here.

Assays:
Hep3B cells = assay: Cell-based FGFR4 proliferation assay (CellTiter-Glo); settings: incubated with test compound for 3 days, CellTiter-Glo luminescence, read-out: Potency (IC50), Hep3B cell proliferation
Method: Hepatocellular carcinoma cell line Hep3B (ATCC, Cat #HB-8064) were cultured at 37° C., 5% CO2 in ATCC-formulated Eagle's Minimum Essential Medium supplemented with 10% fetal bovine serum; 1% Penicillin-Streptomycin.
(§1) Cell line: Hepatocellular carcinoma cell line Hep3B (ATCC, Cat #HB-8064).
In this assay, Hep3B cells are seeded in 384-well microplates, and after exposure to experimental compounds for […], CellTiter-Glo® Luminescent Cell Viability Assay kit (Promega, Cat #G7572) are used to determine the number of viable cells in the culture based on quantitation of the ATP present, which signals the presence of metabolically active cells. Luminescent signal is proportional to the amount of ATP present. The amount of ATP is directly proportional to the number of cells present in the culture, allowing drug-induced effects on cell proliferation to be measured.
Hep3B cells were plated at a density of 4×10^4/ml cells in a 384-well black/clear microplate with 20 μL per well of MEM Medium (Gibco Cat. #11095-080) supplemented with 10% fetal bovine serum; 1% Penicillin-Streptomycin, and cultured overnight at 37° C., 5% CO2. Various concentrations of the test compound (dissolved in 100% DMSO) were added to the wells of the cell plate. The cells were incubated with the test compound for 3 days at 37° C., 5% CO2. 5 μL of CellTiter-Glo® Reagent was added to each well of the cell plate. The cell plate was incubated for 5 min at 25° C. on a plate shaker (IKA MTS 2/4) at 300 rpm. Luminescence signals were read on a TECAN Spark 10M instrument (TECAN). […] The concentrations and percent inhibition values for a test compound were plotted and the concentration of the compound required to achieve 50% inhibition (IC50) is determined with a four-parameter logistic dose response equation. Dose-response curves were generated using Prism (GraphPad Software, La Jolla, CA, US) to calculate IC50 values for each compound tested.

human FGFR4 = target: T1, human FGFR4 (Homo sapiens, UniProt P22455); assay: FGFR4 enzymatic assay (HTRF KinEASE-TK); assay type: biochemical; settings: wild-type human FGFR4 cytoplasmic domain (460-802), GST-tag; 60 min preincubation at 25° C.; ATP 200 μM; read-out: Potency (IC50), FGFR4 enzymatic assay
T1 construct: human FGFR4 cytoplasmic domain (460-802); GST (N); purchased Carna Biosciences 08-136
T1 sequence (P22455 460-802): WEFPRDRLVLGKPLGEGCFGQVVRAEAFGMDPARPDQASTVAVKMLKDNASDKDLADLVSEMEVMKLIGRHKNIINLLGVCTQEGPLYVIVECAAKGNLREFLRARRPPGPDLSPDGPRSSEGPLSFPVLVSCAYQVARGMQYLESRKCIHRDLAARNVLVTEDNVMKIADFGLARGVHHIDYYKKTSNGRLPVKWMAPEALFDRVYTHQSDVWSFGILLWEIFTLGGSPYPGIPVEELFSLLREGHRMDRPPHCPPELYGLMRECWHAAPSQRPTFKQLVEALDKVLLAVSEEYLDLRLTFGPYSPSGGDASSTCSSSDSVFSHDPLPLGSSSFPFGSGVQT
Method: The ability of compounds to inhibit human FGFR4 tyrosine kinase activities was determined using a commercially available HTRF® KinEASE™-TK kit (CISBIO, Cat #62TK0PEC) according to the manufacturer's protocol. Wild-type human FGFR4 cytoplasmic domain (460-802) with N-terminal GST-tag was purchased from Carna Biosciences (Carna, Cat #08-136) and used in the kinase enzymatic assay. This assay, run in a 384-well plate format, is a generic method for measuring tyrosine kinase activities using one substrate and a universal detection system. It involves two steps: (1) Enzymatic step: the biotin labeled TK Substrate is incubated with the kinase and then ATP is added to start the enzymatic reaction; during this step, FGFR4 will phosphorylate the TK Substrate-biotin. (2) Detection step: The TK-Antibody labeled with Eu^3+-Cryptate can recognize the phosphorylated TK Substrate-biotin. When the streptavidin-XL665 conjugate binds the biotin, a FRET signal will be detected. Briefly, human FGFR4 (0.25 μg/ml) in the enzymatic buffer solutions (250 mM HEPES, pH7.0, 0.1% NaN3, 0.05% BSA, 0.5 mM Orthovanadate) were mixed with various concentrations of the test compound (dissolved in 100% DMSO). These solutions were incubated for 60 min at 25° C., and subsequently a mixture of substrate peptide and ATP was added with the final peptide and ATP concentrations at 0.3 μM and 200 μM respectively. The final reaction mixture of enzyme-substrate-ATP-compound was incubated for 40 min at 37° C. Meanwhile the detection mixture containing the TK-antibody and Streptavidin-XL665 diluted in the detection buffer (50 mM HEPES, pH7.0, with additives) was prepared, and added to the reaction mixture at final concentrations of 25 nM and 18.5 nM respectively. After incubation for 60 min at 25° C., the FRET signal of the final solution was measured at 665 nm and 612 nm emissions on a TECAN Spark 10M instrument (TECAN). The percent (%) inhibition at each concentration of a compound was calculated relative to the FRET signal in the Max and Min control wells contained within each assay plate. The Max control wells contained enzyme and substrate as 0% inhibition, and the Min control wells only contained substrate without enzyme as 100% inhibition. The concentrations and percent inhibition values for a test compound are plotted and the concentration of the compound required to achieve 50% inhibition (IC50) was determined with a four-parameter logistic dose response equation. Dose-response curves were generated using Prism (GraphPad Software, La Jolla, CA, US) to calculate IC50 values for each compound tested.

[1] = tested on: MAPK phosphorylation in Hep3B cells stimulated with FGF19; assay: FGFR4 pMAPK AlphaLISA SureFire Ultra assay; assay type: cell-based; settings: serum-starved, compound 1 hour, FGF19 100 ng/ml for 4 hours, read-out: Potency (IC50), FGFR4 pMAPK AlphaLISA
Excerpt: as §1
In normal liver, circulating FGF19 drives liver cell proliferation and regulates bile acid production. However aberrant expression of FGF19 in the liver drives HCC tumorigenesis, upregulates MAPK phosphorylation in FGF19-amplified malignant liver cells. AlphaScreen SureFire technology allows the detection of phosphorylated proteins in cellular lysates in a highly sensitive, quantitative assay. In these assays, sandwich antibody complexes, which are only formed in the presence of analyte, are captured by AlphaScreen Donor and Acceptor beads, bringing them into close proximity. The excitation of the Donor bead provokes the release of singlet oxygen molecules that triggers a cascade of energy transfer in the Acceptor beads, resulting in the emission of light at 520-620 nm.
Hep3B cells were plated at a density of 1×10^4/ml cells in a 96-well plate (Corning #3599), with 100 uL per well of MEM Medium (Gibco Cat #11095-080) supplemented with 10% fetal bovine serum; 1% Penicillin-Streptomycin, and cultured overnight at 37° C., 5% CO2. Starve Hep3B cells in serum-free medium (SFM) supplemented with 0.2% BSA and incubate the cells again overnight at 37° C., 5% CO2. Various concentrations of the test compound (prepared in 2x SFM) were added to the wells of the cell plate and then incubated for 1 hour at 37° C., 5% CO2. 50 μL of FGF19 in SFM was added to each well of the cell plate with a final FGF19 concentration of 100 ng/ml, and cells treated with FGF19 were stimulated for 4 hours at 37° C., 5% CO2. 5 μL of freshly prepared Donor Mix and Acceptor Mix were sequentially added to the cell plate, each followed with 1 hour of incubation at 25° C., 5% CO2. Read the cell plate on an Alpha Technology-compatible plate reader at 570 nm AlphaScreen, using standard AlphaLISA settings. The percent (%) inhibition=((ZPE−Alpha-Signal)/(ZPE−HPE))*100% where the meanings of HPE and ZPE are as provided below.
HPE: Hundred Percent Effect, negative control well without FGF19 nor compound. Final concentration of DMSO is 0.1%.
ZPE: Zero Percent Effect, positive control well without compound. Final concentration of FGF19 is 100 ng/mL, DMSO is 0.1%.
The concentrations and percent inhibition values for a test compound were plotted and the concentration of the compound required to achieve 50% inhibition (IC50) was determined with a four-parameter logistic dose response equation. Dose-response curves were generated using Prism (GraphPad Software, La Jolla, CA, US) to calculate IC50 values for each compound tested.

| SMILES | IC50 (Hep3B cells) [µM] | IC50 (human FGFR4) [µM] | IC50 [1] [µM] | IC50 (Hep3B cells; Homo sapiens, Hep3B, 72 h) [µM] | IC50 ([1]; Homo sapiens, Hep3B) [µM] |
| --- | --- | --- | --- | --- | --- |
| [2H]C([2H])([2H])Oc1cc(OC([2H])([2H])[2H])c(F)c(C2CCc3c(-c4c(NC(=O)C=C)cnn4C)n[nH]c3C2)c1F (single isomer, unassigned) [Compound S8-P2, N-(5-(6-(2,6-difluoro-3,5-bis(methoxy-d3)phenyl)-4,5,6,7-tetrahydro-1H-indazol-3-yl)-1-methyl-1H-pyrazol-4-yl) acrylamide] | 0.01 to 0.1 | < 0.01 | < 0.01 | – | – |
| [2H]C([2H])([2H])Oc1cc(OC([2H])([2H])[2H])c(F)c(C2CCc3c(-c4c(NC(=O)C=C)cnn4C)n[nH]c3C2)c1 (single isomer, unassigned) [Compound S8-P3, N-(5-(6-(2-fluoro-3,5-bis(methoxy-d3)phenyl)-4,5,6,7-tetrahydro-1H-indazol-3-yl)-1-methyl-1H-pyrazol-4-yl) acrylamide] | – | 0.01 to 0.1 | – | > 0.1 | 0.01 to 0.1 |
| [2H]C([2H])([2H])Oc1cc(OC([2H])([2H])[2H])c(F)c(C2CCc3c(-c4c(NC(=O)C=C)cnn4C)n[nH]c3C2)c1 (single isomer, unassigned) [Compound S8-P4, N-(5-(6-(2-fluoro-3,5-bis(methoxy-d3)phenyl)-4,5,6,7-tetrahydro-1H-indazol-3-yl)-1-methyl-1H-pyrazol-4-yl) acrylamide] | > 0.1 | 0.01 to 0.1 | 0.01 to 0.1 | – | – |
| C=CC(=O)Nc1cn[nH]c1-c1n[nH]c2c1CCCC(c1cc(OC)cc(OC)c1F)C2 (single isomer, unassigned) [Compound S11-P3, N-(5-(7-(2-fluoro-3,5-dimethoxyphenyl)-1,4,5,6,7,8-hexahydrocyclohepta[c]pyrazol-3-yl)-1H-pyrazol-4-yl)acrylamide] | – | < 0.01 | – | 0.01 to 0.1 | < 0.01 |
| C=CC(=O)Nc1cn[nH]c1-c1n[nH]c2c1CCCC(c1cc(OC)cc(OC)c1F)C2 (single isomer, unassigned) [Compound S11-P4, N-(5-(7-(2-fluoro-3,5-dimethoxyphenyl)-1,4,5,6,7,8-hexahydrocyclohepta[c]pyrazol-3-yl)-1H-pyrazol-4-yl)acrylamide] | < 0.01 | < 0.01 | < 0.01 | – | – |
| C=CC(=O)Nc1cn(C)nc1-c1n[nH]c2c1CCC[C@H](c1c(F)c(OC)cc(OC)c1F)C2 (single isomer, unassigned) [Compound S12-P1] | – | < 0.01 | – | 0.01 to 0.1 | < 0.01 |
| C=CC(=O)Nc1cn(C)nc1-c1n[nH]c2c1CCCC(c1cc(OC)cc(OC)c1F)C2 (single isomer, unassigned) [Compound S12-P3, N-(3-(7-(2-fluoro-3,5-dimethoxyphenyl)-1,4,5,6,7,8-hexahydrocyclohepta[c]pyrazol-3-yl)-1-methyl-1H-pyrazol-4-yl) acrylamide] | – | 0.01 to 0.1 | – | 0.01 to 0.1 | < 0.01 |
| C=CC(=O)Nc1cn(C)nc1-c1n[nH]c2c1CCCC(c1cc(OC)cc(OC)c1F)C2 (single isomer, unassigned) [Compound S12-P4, N-(3-(7-(2-fluoro-3,5-dimethoxyphenyl)-1,4,5,6,7,8-hexahydrocyclohepta[c]pyrazol-3-yl)-1-methyl-1H-pyrazol-4-yl) acrylamide] | < 0.01 | < 0.01 | < 0.01 | – | – |
| C=CC(=O)Nc1c[nH]nc1-c1n[nH]c2c1CCC(c1c(F)c(OC)cc(OC)c1F)C2 (single isomer, unassigned) [Compound S15-P1, N-(3-(6-(2,6-difluoro-3,5-dimethoxyphenyl)-4,5,6,7-tetrahydro-1H-indazol-3-yl)-1H-pyrazol-4-yl)acrylamide] | – | < 0.01 | – | < 0.01 | < 0.01 |
| C=CC(=O)Nc1c[nH]nc1-c1n[nH]c2c1CCC(c1cc(OC)cc(OC)c1F)C2 (single isomer, unassigned) [Compound S15-P3, N-(3-(6-(2-fluoro-3,5-dimethoxyphenyl)-4,5,6,7-tetrahydro-1H-indazol-3-yl)-1H-pyrazol-4-yl)acrylamide] | – | 0.01 to 0.1 | – | 0.01 to 0.1 | < 0.01 |
| C=CC(=O)Nc1c[nH]nc1-c1n[nH]c2c1CCC(c1cc(OC)cc(OC)c1F)C2 (single isomer, unassigned) [Compound S15-P4, N-(3-(6-(2-fluoro-3,5-dimethoxyphenyl)-4,5,6,7-tetrahydro-1H-indazol-3-yl)-1H-pyrazol-4-yl)acrylamide] | 0.01 to 0.1 | 0.01 to 0.1 | < 0.01 | – | – |
| [2H]C([2H])([2H])n1ncc(NC(=O)C=C)c1-c1n[nH]c2c1CCC(c1c(F)c(OC)cc(OC)c1F)C2 (single isomer, unassigned) [Compound S16-P1, N-(5-(6-(2,6-difluoro-3,5-dimethoxyphenyl)-4,5,6,7-tetrahydro-1H-indazol-3-yl)-1-(methyl-d3)-1H-pyrazol-4-yl)acrylamide] | – | < 0.01 | – | 0.01 to 0.1 | < 0.01 |
